In US11352344B2, “Antagonists of the muscarinic acetylcholine receptor M4” (Vanderbilt University, priority 2017, dated 2022):

Molecular target: T1, Human M4 (Homo sapiens, UniProt P08173)
T1 construct: expressed in transfected cells; host or cells: CHO-K1 (Chinese hamster ovary) cells, stably co-transfected with Gqi5
T1 sequence (P08173 1-479): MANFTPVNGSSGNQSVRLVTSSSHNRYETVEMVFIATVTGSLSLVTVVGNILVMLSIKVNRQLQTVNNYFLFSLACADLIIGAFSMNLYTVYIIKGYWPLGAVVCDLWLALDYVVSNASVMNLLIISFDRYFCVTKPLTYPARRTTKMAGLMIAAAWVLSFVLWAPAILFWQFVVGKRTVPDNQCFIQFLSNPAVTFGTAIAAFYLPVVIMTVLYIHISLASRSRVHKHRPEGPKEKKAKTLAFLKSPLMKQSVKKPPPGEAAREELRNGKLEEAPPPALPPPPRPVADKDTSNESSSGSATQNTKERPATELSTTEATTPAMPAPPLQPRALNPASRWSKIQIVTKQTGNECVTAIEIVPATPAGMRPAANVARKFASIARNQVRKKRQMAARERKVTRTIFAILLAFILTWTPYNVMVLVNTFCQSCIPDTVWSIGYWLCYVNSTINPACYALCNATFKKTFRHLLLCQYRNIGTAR
Assay: mAChR M4 cell-based functional assay (calcium flux, antagonism of EC80 acetylcholine response)
Settings: for remaining activity at 30 µM: % ACh maximum at 30 μM, human M4, read-out: Emin; for IC50: M4/Gqi5/CHO-K1 cells, decrease of response to EC80 acetylcholine
Experimental: Human or rat M4 cDNA, along with the chimeric G protein Gqi5, were transfected into Chinese hamster ovary (CHO-K1) cells purchased from the American Type Culture Collection using Lipofectamine2000. M4/Gqi5/CHO cells were grown in Ham's F-12 medium containing 10% heat-inactivated fetal bovine serum (FBS), 20 mM HEPES, 500 μg/mL G418 sulfate, and 200 μg/mL Hygromycin B.
For high throughput measurement of agonist-evoked increases in intracellular calcium, CHO-K1 cells stably expressing muscarinic receptors were plated in growth medium lacking G418 and hygromycin at 15,000 cells/20 μL/well in Greiner 384-well black-walled, tissue culture (TC)-treated, clear-bottom plates (VWR). Cells were incubated overnight at 37° C. and 5% CO2. The next day, cells were washed using an ELX 405 (BioTek) with assay buffer; the final volume was then aspirated to 20 μL. Next, 20 μL of a 2.3 μM stock of Fluo-4/acetoxymethyl ester (Invitrogen, Carlsbad, Calif.), prepared as a 2.3 mM stock in DMSO and mixed in a 1:1 ratio with 10% (w/v) Pluronic F-127 and diluted in assay buffer, was added to the wells and the cell plates were incubated for 50 min at 37° C. and 5% CO2. Dye was removed by washing with the ELX 405 and the final volume was aspirated to 20 μL. Compound master plates were formatted in a 10 point concentration-response curve (CRC) format (1:3 dilutions) in 100% DMSO with a starting concentration of 10 or 1 mM using a BRAVO liquid handler (Agilent). Test compound CRCs were then transferred to daughter plates (240 nL) using the Echo acoustic plate reformatter (Labcyte, Sunnyvale, Calif.) and then diluted into assay buffer (40 μL) to a 2× stock using a Thermo Fisher Combi (Thermo Fisher Scientific, Waltham, Mass.).
Calcium flux was measured using the Functional Drug Screening System (FDSS) 6000 or 7000 (Hamamatsu Corporation, Tokyo, Japan) as an increase in the fluorescent static ratio. Compounds were applied to cells (20 μL, 2×) using the automated system of the FDSS at 2 seconds into the protocol and the data were collected at 1 Hz. At 143 s, 10 μL of an EC20 concentration of the muscarinic receptor agonist acetylcholine was added (5×), followed by the addition of 12 μL of an EC80 concentration of acetylcholine at the 268 s time point (5×). Agonist activity was analyzed as a concentration-dependent increase in calcium mobilization upon compound addition. Positive allosteric modulator activity was analyzed as a concentration-dependent increase in the EC20 acetylcholine response. Antagonist activity was analyzed as a concentration-dependent decrease in the EC80 acetylcholine response; for the purposes of the tables herein, an IC50 (inhibitory concentration 50) was calculated as a concentration-dependent decrease of the response elicited by an EC80 concentration of acetylcholine. Concentration-response curves were generated using a four-parameter logistical equation in XLFit curve fitting software (IDBS, Bridgewater, N.J.) for Excel (Microsoft, Redmond, Wash.) or Prism (GraphPad Software, Inc., San Diego, Calif.) or the Dotmatics software platform (Dotmatics, Bishop's Stortford, UK).
Compounds were synthesized as described above. Activity (IC50 and Emin) was determined in the mAChR M4 cell-based functional assay as described above and the data are shown in Table 5. The compound numbers correspond to the compound numbers used in Examples 1-4 and Tables 1-4.

Structure (SMILES) | remaining activity at 30 µM [%] | IC50 [nM]
Cc1cnn(C)c1-c1ccc(NC2CCC3CN(CCC(C)(C)C)CC32)nn1 (stereo not shown) [Compound 1, 2-(3,3-Dimethylbutyl)-N-[6-(2,4-dimethylpyrazol-3-yl)pyridazin-3-yl]-3,3a,4,5,6,6a-hexahydro-1H-cyclopenta[c]pyrrol-4-amine] | 31.1 | > 10000
Cc1cnn(C)c1-c1ccc(NC2CCC3CN(CC45CC6CC(CC(C6)C4)C5)CC32)nn1 (stereo not shown) [Compound 2, 2-(1-adamantylmethyl)-N-[6-(2,4-dimethylpyrazol-3-yl)pyridazin-3-yl]-3,3a,4,5,6,6a-hexahydro-1H-cyclopenta[c]pyrrol-4-amine] | 8.16 | 2170
Cc1cnn(C)c1-c1ccc(NC2CCC3CN(CC4CC5C=CC4C5)CC32)nn1 (stereo not shown) [Compound 3, 2-(5-bicyclo[2.2.1]hept-2-enylmethyl)-N-[6-(2,4-dimethylpyrazol-3-yl)pyridazin-3-yl]-3,3a,4,5,6,6a-hexahydro-1H-cyclopenta[c]pyrrol-4-amine] | 14 | 3280
Cc1cccnc1CN1CC2CCC(Oc3ccc(-c4c(C)cnn4C)nn3)C2C1 (stereo not shown) [Compound 4, 4-[6-(2,4-Dimethylpyrazol-3-yl)pyridazin-3-yl]oxy-2-[(3-methyl-2-pyridyl)methyl]-3,3a,4,5,6,6a-hexahydro-1H-cyclopenta[c]pyrrole] | 31.9 | > 10000
Cc1cnn(C)c1-c1ccc(OC2CCC3CN(CCC(C)(C)C)CC32)nn1 (stereo not shown) [Compound 5, 2-(3,3-dimethylbutyl)-4-[6-(2,4-dimethylpyrazol-3-yl)pyridazin-3-yl]oxy-3,3a,4,5,6,6a-hexahydro-1H-cyclopenta[c]pyrrole] | 9.66 | 3570
Cc1cnn(C)c1-c1ccc(OC2CCC3CN(Cc4ccccc4)CC32)nn1 (stereo not shown) [Compound 8, 2-benzyl-4-[6-(2,4-dimethylpyrazol-3-yl)pyridazin-3-yl]oxy-3,3a,4,5,6,6a-hexahydro-1H-cyclopenta[c]pyrrole] | 43.3 | > 10000
Cc1cnn(C)c1-c1ccc(OC2CCC3CN(CCc4ccccc4)CC32)nn1 (stereo not shown) [Compound 9, 4-[6-(2,4-dimethylpyrazol-3-yl)pyridazin-3-yl]oxy-2-(2-phenylethyl)-3,3a,4,5,6,6a-hexahydro-1H-cyclopenta[c]pyrrole] | 29.6 | > 10000
Cc1cnn(C)c1-c1ccc(NCCC2CCC3CN(CC4CCCOC4)CC23)nn1 (stereo not shown) [Compound 11, 6-(2,4-dimethylpyrazol-3-yl)-N-[2-[2-(tetrahydropyran-3-ylmethyl)-3,3a,4,5,6,6a-hexahydro-1H-cyclopenta[c]pyrrol-4-yl]ethyl]pyridazin-3-amine] | 20.9 | > 10000
Cc1cnn(C)c1-c1ccc(NCCC2CCC3CN(CC4CCOCC4)CC23)nn1 (stereo not shown) [Compound 12, 6-(2,4-dimethylpyrazol-3-yl)-N-[2-[2-(tetrahydropyran-4-ylmethyl)-3,3a,4,5,6,6a-hexahydro-1H-cyclopenta[c]pyrrol-4-yl]ethyl]pyridazin-3-amine] | 29.4 | > 10000
Cc1cccnc1CN1CC2CCC(CCNc3ccc(-c4c(C)cnn4C)nn3)C2C1 (stereo not shown) [Compound 14, 6-(2,4-dimethylpyrazol-3-yl)-N-[2-[2-[(3-methyl-2-pyridyl)methyl]-3,3a,4,5,6,6a-hexahydro-1H-cyclopenta[c]pyrrol-4-yl]ethyl]pyridazin-3-amine] | 7.73 | 1780
Cc1cnn(C)c1-c1ccc(NCCC2CCC3CN(Cc4ccccc4)CC23)nn1 (stereo not shown) [Compound 15, N-[2-(2-benzyl-3,3a,4,5,6,6a-hexahydro-1H-cyclopenta[c]pyrrol-4-yl)ethyl]-6-(2,4-dimethylpyrazol-3-yl)pyridazin-3-amine] | 8.5 | 2260
Cc1cnn(C)c1-c1ccc(NCCC2CCC3CN(CCc4ccccc4)CC23)nn1 (stereo not shown) [Compound 16, 6-(2,4-dimethylpyrazol-3-yl)-N-[2-[2-(2-phenylethyl)-3,3a,4,5,6,6a-hexahydro-1H-cyclopenta[c]pyrrol-4-yl]ethyl]pyridazin-3-amine] | 6.59 | 2210

These reach a lower IC50. Values come first.

remaining activity at 30 µM [%] | IC50 [nM] | Structure (SMILES)
3.95 | 1030 | Cc1cnn(C)c1-c1ccc(OC2CCC3CN(CC45CC6CC(CC(C6)C4)C5)CC32)nn1 (stereo not shown) [Compound 6, 2-(1-adamantylmethyl)-4-[6-(2,4-dimethylpyrazol-3-yl)pyridazin-3-yl]oxy-3,3a,4,5,6,6a-hexahydro-1H-cyclopenta[c]pyrrole]
5.46 | 1360 | Cc1cnn(C)c1-c1ccc(OC2CCC3CN(CC4CC5C=CC4C5)CC32)nn1 (stereo not shown) [Compound 7, 2-(5-bicyclo[2.2.1]hept-2-enylmethyl)-4-[6-(2,4-dimethylpyrazol-3-yl)pyridazin-3-yl]oxy-3,3a,4,5,6,6a-hexahydro-1H-cyclopenta[c]pyrrole]
4.47 | 130 | Cc1cnn(C)c1-c1ccc(NCCC2CCC3CN(CCC(C)(C)C)CC23)nn1 (stereo not shown) [Compound 10, N-[2-[2-(3,3-Dimethylbutyl)-3,3a,4,5,6,6a-hexahydro-1H-cyclopenta[c]pyrrol-4-yl]ethyl]-6-(2,4-dimethylpyrazol-3-yl)pyridazin-3-amine]
3.75 | 65 | Cc1cnn(C)c1-c1ccc(NCCC2CCC3CN(CC4CC5C=CC4C5)CC23)nn1 (stereo not shown) [Compound 13, N-[2-[2-(5-bicyclo[2.2.1]hept-2-enylmethyl)-3,3a,4,5,6,6a-hexahydro-1H-cyclopenta[c]pyrrol-4-yl]ethyl]-6-(2,4-dimethylpyrazol-3-yl)pyridazin-3-amine]
5.4 | 1050 | Cc1cnn(C)c1-c1ccc(NCCC2CCC3CN(CCCc4ccccc4)CC23)nn1 (stereo not shown) [Compound 17, 6-(2,4-dimethylpyrazol-3-yl)-N-[2-[2-(3-phenylpropyl)-3,3a,4,5,6,6a-hexahydro-1H-cyclopenta[c]pyrrol-4-yl]ethyl]pyridazin-3-amine]
3.52 | 402 | Cc1cnn(C)c1-c1ccc(NCCC2CCC3CN(CC45CC6CC(CC(C6)C4)C5)CC23)nn1 (stereo not shown) [Compound 18, N-[2-[2-(1-adamantylmethyl)-3,3a,4,5,6,6a-hexahydro-1H-cyclopenta[c]pyrrol-4-yl]ethyl]-6-(2,4-dimethylpyrazol-3-yl)pyridazin-3-amine]
5.11 | 149 | Cc1cnn(C)c1-c1ccc(NCC2CCC3CN(CCC(C)(C)C)CC23)nn1 (stereo not shown) [Compound 19, N-[[2-(3,3-Dimethylbutyl)-3,3a,4,5,6,6a-hexahydro-1H-cyclopenta[c]pyrrol-4-yl]methyl]-6-(2,4-dimethylpyrazol-3-yl)pyridazin-3-amine]
4.4 | 53 | Cc1cnn(C)c1-c1ccc(NCC2CCC3CN(CC45CC6CC(CC(C6)C4)C5)CC23)nn1 (stereo not shown) [Compound 20, N-[[2-(1-adamantylmethyl)-3,3a,4,5,6,6a-hexahydro-1H-cyclopenta[c]pyrrol-4-yl]methyl]-6-(2,4-dimethylpyrazol-3-yl)pyridazin-3-amine]
